In patent publication US20250325687A1, “CONJUGATE COMPRISING TOLL-LIKE RECEPTOR AGONIST” (MABSOFT THERAPEUTICS (SHANGHAI) CO., LTD., priority 2022, published 2025):
Like-named read-outs stand apart in the source and are kept apart here.

How the values were obtained:
Format in all cases: cell-based
[1] = target: T1, hTLR8 (human Toll-like receptor 8) (Homo sapiens, UniProt Q9NR97); assay: hTLR8 cell assay (HEK-Blue hTLR8 reporter cells); settings: 24 hours, OD 650 nm
T1 construct: host or cells: HEK-Blue hTLR8 (HEK293-derived reporter cells)
T1 sequence (Q9NR97 27-1041): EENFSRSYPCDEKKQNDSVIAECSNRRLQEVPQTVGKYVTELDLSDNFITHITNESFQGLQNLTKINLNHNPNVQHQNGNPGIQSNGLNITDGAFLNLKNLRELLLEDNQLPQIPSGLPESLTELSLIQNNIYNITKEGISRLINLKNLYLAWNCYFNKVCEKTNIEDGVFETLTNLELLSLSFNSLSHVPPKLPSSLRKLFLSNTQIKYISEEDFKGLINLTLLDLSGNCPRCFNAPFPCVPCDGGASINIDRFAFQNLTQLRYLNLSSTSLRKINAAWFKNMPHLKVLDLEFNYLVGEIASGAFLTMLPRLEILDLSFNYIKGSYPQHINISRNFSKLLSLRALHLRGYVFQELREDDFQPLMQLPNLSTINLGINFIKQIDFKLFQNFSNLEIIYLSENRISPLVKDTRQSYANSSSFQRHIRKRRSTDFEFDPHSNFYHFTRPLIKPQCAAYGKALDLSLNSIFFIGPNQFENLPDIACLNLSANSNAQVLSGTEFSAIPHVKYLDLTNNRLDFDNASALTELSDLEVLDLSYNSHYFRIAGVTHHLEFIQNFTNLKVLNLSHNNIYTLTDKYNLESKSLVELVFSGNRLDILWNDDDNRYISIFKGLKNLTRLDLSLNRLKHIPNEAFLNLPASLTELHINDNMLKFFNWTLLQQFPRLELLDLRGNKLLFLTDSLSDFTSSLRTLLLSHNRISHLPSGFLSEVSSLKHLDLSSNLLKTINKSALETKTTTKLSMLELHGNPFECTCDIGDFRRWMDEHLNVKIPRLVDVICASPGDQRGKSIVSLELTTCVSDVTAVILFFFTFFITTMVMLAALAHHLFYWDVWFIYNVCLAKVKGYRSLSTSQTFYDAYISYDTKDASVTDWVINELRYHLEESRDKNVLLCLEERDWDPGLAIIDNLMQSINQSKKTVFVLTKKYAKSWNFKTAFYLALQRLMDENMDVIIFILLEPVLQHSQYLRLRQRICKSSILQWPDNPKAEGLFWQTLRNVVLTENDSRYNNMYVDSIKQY
Summary of the method: (§1)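 HEK-Blue reporter cells in HEK-Blue Detection medium (50000 cells/mL) were exposed to test compounds for 24 hours at 37° C, 5% CO2. Agonism was read from supernatant incubated 1 hour at 37° C with QUANTI-Blue, measured as optical density at 650 nm.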

[2] = target: T2, hTLR7 (human Toll-like receptor 7) (Homo sapiens, UniProt Q9NYK1); assay: hTLR7 cell assay (HEK-Blue hTLR7 reporter cells); settings: 24 hours, OD 650 nm
T2 construct: host or cells: HEK-Blue hTLR7 (HEK293-derived reporter cells)
T2 sequence (Q9NYK1 27-1049): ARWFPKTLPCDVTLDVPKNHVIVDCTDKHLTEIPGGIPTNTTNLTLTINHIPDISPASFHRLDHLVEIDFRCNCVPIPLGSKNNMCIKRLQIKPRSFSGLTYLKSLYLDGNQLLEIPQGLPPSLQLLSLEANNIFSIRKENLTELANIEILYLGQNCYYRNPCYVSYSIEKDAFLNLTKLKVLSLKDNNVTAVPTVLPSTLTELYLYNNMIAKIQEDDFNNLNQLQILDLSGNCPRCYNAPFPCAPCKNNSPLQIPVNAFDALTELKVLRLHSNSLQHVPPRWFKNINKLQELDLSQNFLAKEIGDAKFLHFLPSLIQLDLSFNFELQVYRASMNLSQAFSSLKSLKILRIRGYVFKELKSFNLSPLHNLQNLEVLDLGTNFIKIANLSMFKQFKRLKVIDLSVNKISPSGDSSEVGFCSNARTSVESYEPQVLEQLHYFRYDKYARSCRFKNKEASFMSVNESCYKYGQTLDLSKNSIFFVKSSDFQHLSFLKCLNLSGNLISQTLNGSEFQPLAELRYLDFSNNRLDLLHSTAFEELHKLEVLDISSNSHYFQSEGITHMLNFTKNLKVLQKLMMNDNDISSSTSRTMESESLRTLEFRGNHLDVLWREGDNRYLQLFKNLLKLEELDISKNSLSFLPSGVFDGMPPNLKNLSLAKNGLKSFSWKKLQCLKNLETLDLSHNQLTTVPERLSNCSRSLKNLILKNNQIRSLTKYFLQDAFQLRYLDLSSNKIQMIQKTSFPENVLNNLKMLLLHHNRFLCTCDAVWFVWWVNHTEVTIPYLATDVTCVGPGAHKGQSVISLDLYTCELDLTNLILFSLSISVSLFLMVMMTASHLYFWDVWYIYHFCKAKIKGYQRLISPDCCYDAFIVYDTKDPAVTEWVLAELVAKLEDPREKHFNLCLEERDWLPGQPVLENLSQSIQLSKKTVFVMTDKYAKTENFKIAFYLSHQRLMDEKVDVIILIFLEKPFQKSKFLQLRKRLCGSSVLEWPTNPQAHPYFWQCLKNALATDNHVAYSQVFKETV
Summary of the method: as §1

[3] = test system: human PBMC (human peripheral blood mononuclear cells); assay: PBMC screening assay: induction of TNF-α production; settings: read-out: EC50 (μM) TNF-α (hPBMC)
Procedure: The payload compounds of Formula (II′) were assayed to evaluate the induction of TNF-α production in human PBMC (human peripheral blood mononuclear cells).
Human peripheral blood mononuclear cells (PBMC) were obtained from Allcells. […] PBMC were incubated for 24 hours at 37° C. in a 5% CO2 humidified incubator. The following day PBMC plates were centrifuged at 500×g for 5 minutes and the growth media was removed. 200 μL of compound prepared in growth media at a series of diluted concentrations ranging from 2.54 nM to 50 μM were added to PBMC in duplicate and incubated for 24 hours at 37° C. in a 5% CO2 incubator. Prior to supernatant harvest, cells were spun at 500×g for 5 minutes to remove cell debris. TNF-α activity was assessed in the supernatant by ELISA (Elabscience) per the manufacturer's instructions. Optical density at 450 nm (ELISA) was analyzed using a plate reader.

[4] = human PBMC, 24 hours, TNF-α by ELISA, class symbols

With `CCCC(F)(F)c1nc2c(N)nc3cc(Cc4cccc(CN)c4)ccc3c2n1CC(C)(C)O` [Compound 52, 1-(4-amino-7-(3-(aminomethyl)benzyl)-2-(1,1-difluorobutyl)-1H-imidazo[4,5-c]quinolin-1-yl)-2-methylpropan-2-ol] the EC50 [1] was under 5 µM, the EC50 [2] was 1 to 10 µM and the EC50 [3, 4] was over 0.64 µM.

Work on `CC(C)(O)Cn1c(COCC(F)(F)F)nc2c(N)nc3cc(Cc4cccc(CN)c4)ccc3c21` [Compound 53, 1-(4-amino-7-(3-(aminomethyl)benzyl)-2-((2,2,2-trifluoroethoxy)methyl)-1H-imidazo[4,5-c]quinolin-1-yl)-2-methylpropan-2-ol] yielded an EC50 [1] of under 5 µM, an EC50 [2] of under 1 µM and an EC50 [3, 4] of under 0.64 µM.

For `CC(C)(O)Cn1c(CC2CC2)nc2c(N)nc3cc(Cc4cccc(CN)c4)ccc3c21` [Compound 54, 1-(4-amino-7-(3-(aminomethyl)benzyl)-2-(cyclopropylmethyl)-1H-imidazo[4,5-c]quinolin-1-yl)-2-methylpropan-2-ol], the EC50 [1] was under 5 µM, the EC50 [2] was under 1 µM and the EC50 [3, 4] was over 0.64 µM.

`CC(C)(O)Cn1c(COC2CC2)nc2c(N)nc3cc(Cc4cccc(CN)c4)ccc3c21` [Compound 55, 1-(4-amino-7-(3-(aminomethyl)benzyl)-2-(cyclopropoxymethyl)-1H-imidazo[4,5-c]quinolin-1-yl)-2-methylpropan-2-ol] showed an EC50 [1] of under 5 µM, an EC50 [2] of under 1 µM and an EC50 [3, 4] of under 0.64 µM.

`CCCCc1nc2c(N)nc3cc(C(C)c4cccc(CN)c4)ccc3c2n1CC(C)(C)O` (stereo not drawn) [Compound 56, 1-(4-amino-7-(1-(3-(aminomethyl)phenyl)ethyl)-2-butyl-1H-imidazo[4,5-c]quinolin-1-yl)-2-methylpropan-2-ol] gave an EC50 [1] of under 5 µM, an EC50 [2] of under 1 µM and an EC50 [3, 4] of under 0.64 µM.

Work on `CCCCc1nc2c(N)nc3cc(Cc4ccc5c(c4)C(N)CCC5)ccc3c2n1CC(C)(C)O` (stereo not drawn) [Compound 57, 1-(4-amino-7-((8-amino-5,6,7,8-tetrahydronaphthalen-2-yl)methyl)-2-butyl-1H-imidazo[4,5-c]quinolin-1-yl)-2-methylpropan-2-ol] yielded an EC50 [1] of under 5 µM, an EC50 [2] of under 1 µM and an EC50 ([3]; Homo sapiens, PBMC, 24 h) of under 0.64 µM.

`CCCCc1nc2c(N)nc3cc(Cc4ccc5c(c4)CC(N)CC5)ccc3c2n1CC(C)(C)O` (stereo not drawn) [Compound 58, 1-(4-amino-7-((7-amino-5,6,7,8-tetrahydronaphthalen-2-yl)methyl)-2-butyl-1H-imidazo[4,5-c]quinolin-1-yl)-2-methylpropan-2-ol] showed an EC50 [1] of under 5 µM, an EC50 [2] of under 1 µM and an EC50 [3, 4] of under 0.64 µM.

`CCCCc1nc2c(N)nc3cc(Cc4ccc5c(c4)CCNC5)ccc3c2n1CC(C)(C)O` [Compound 59, 1-(4-amino-2-butyl-7-((1,2,3,4-tetrahydroisoquinolin-6-yl)methyl)-1H-imidazo[4,5-c]quinolin-1-yl)-2-methylpropan-2-ol] was tested, and the EC50 [1] was under 5 µM, the EC50 [2] was under 1 µM and the EC50 [3, 4] was under 0.64 µM.

For `CCCCc1nc2c(N)nc3cc(Cc4ccc5c(c4)CNCC5)ccc3c2n1CC(C)(C)O` [Compound 60, 1-(4-amino-2-butyl-7-((1,2,3,4-tetrahydroisoquinolin-7-yl)methyl)-1H-imidazo[4,5-c]quinolin-1-yl)-2-methylpropan-2-ol], the EC50 [1] was under 5 µM, the EC50 [2] was under 1 µM and the EC50 [3, 4] was under 0.64 µM.

`CCCCc1nc2c(N)nc3cc(Cc4ccc5c(c4)C(N)CC5)ccc3c2n1CC(C)(C)O` (stereo not drawn) [Compound 61, 1-(4-amino-7-((3-amino-2,3-dihydro-1H-inden-5-yl)methyl)-2-butyl-1H-imidazo[4,5-c]quinolin-1-yl)-2-methylpropan-2-ol] gave an EC50 [1] of under 5 µM, an EC50 [2] of under 1 µM and an EC50 [3, 4] of under 0.64 µM.

Work on `CCCCc1nc2c(N)nc3cc(Cc4cccc(OCCN)c4)ccc3c2n1CC(C)(C)O` [Compound 62, 1-(4-amino-7-(3-(2-aminoethoxy)benzyl)-2-butyl-1H-imidazo[4,5-c]quinolin-1-yl)-2-methylpropan-2-ol] yielded an EC50 [1] of under 5 µM, an EC50 [2] of under 1 µM and an EC50 [3, 4] of under 0.64 µM.

Compound `CCCCc1nc2c(N)nc3cc(Cc4cccc(N5CCNCC5)c4)ccc3c2n1CC(C)(C)O` [Compound 63, 1-(4-amino-2-butyl-7-(3-(piperazin-1-yl)benzyl)-1H-imidazo[4,5-c]quinolin-1-yl)-2-methylpropan-2-ol] has an EC50 [1] of under 5 µM, an EC50 [2] of under 1 µM and an EC50 [3, 4] of under 0.64 µM.

In the case of `CCCCc1nc2c(N)nc3cc(Cc4cccc(C(=O)NCCN)c4)ccc3c2n1CC(C)(C)O` [Compound 64, 3-((4-amino-2-butyl-1-(2-hydroxy-2-methylpropyl)-1H-imidazo[4,5-c]quinolin-7-yl)methyl)-N-(2-aminoethyl)benzamide], the EC50 [1] is reported as under 5 µM, the EC50 [2] is reported as 1 to 10 µM and the EC50 [3, 4] is reported as under 0.64 µM.

For `CCCCc1nc2c(N)nc3cc(Cc4cccc(NC(=O)CN)c4)ccc3c2n1CC(C)(C)O` [Compound 65, 2-amino-N-(3-((4-amino-2-butyl-1-(2-hydroxy-2-methylpropyl)-1H-imidazo[4,5-c]quinolin-7-yl)methyl)phenyl)acetamide], the EC50 [1] was under 5 µM, the EC50 [2] was 1 to 10 µM and the EC50 [3, 4] was under 0.64 µM.

Work on `CCCCc1nc2c(N)nc3cc(Cc4cccc(CNC(=O)CN)c4)ccc3c2n1CC(C)(C)O` [Compound 66, 2-amino-N-(3-((4-amino-2-butyl-1-(2-hydroxy-2-methylpropyl)-1H-imidazo[4,5-c]quinolin-7-yl)methyl)benzyl)acetamide] yielded an EC50 [1] of under 5 µM, an EC50 [2] of 1 to 10 µM and an EC50 [3, 4] of over 0.64 µM.

Work on `CCCCc1nc2c(N)nc3cc(Cc4cc(CN)ccc4F)ccc3c2n1CC(C)(C)O` [Compound 67, 1-(4-amino-7-(5-(aminomethyl)-2-fluorobenzyl)-2-butyl-1H-imidazo[4,5-c]quinolin-1-yl)-2-methylpropan-2-ol] yielded an EC50 [1] of under 5 µM, an EC50 [2] of under 1 µM and an EC50 [3, 4] of under 0.64 µM.

`CCCCc1nc2c(N)nc3cc(Cc4ccc(F)c(CN)c4)ccc3c2n1CC(C)(C)O` [Compound 68, 1-(4-amino-7-(3-(aminomethyl)-4-fluorobenzyl)-2-butyl-1H-imidazo[4,5-c]quinolin-1-yl)-2-methylpropan-2-ol] showed an EC50 [1] of under 5 µM, an EC50 [2] of under 1 µM and an EC50 [3, 4] of under 0.64 µM.
